PubChem BioAssay AID1918935 (Molecular Pharmacology Branch, DTP, NCI, 2023)

System: 324938-238-R-J1-PDC complex spheroid viability
Experiment: Anticancer human tumor 324938-238-R-J1-PDC patient-derived bladder carcinoma cell line growth inhibition
Conditions: for IC50: curve of first compound; for viability, T/C: stronger effect = lower value; active means viability on the fitted dose curve at most 10% of control; inactive means the rest
Description: Multicellular complex tumor spheroid response to LSD1 Inhibitor Iadademstat in combination with a variety of drugs and investigational agents in selected tumor cell lines
The current study was undertaken to assess response to LSD1 inhibitors in combination with standard-of-care drugs and investigational agents in solid tumor complex spheroid models as well as in the K-562 leukemia. Complex spheroids include a stromal component modeled by human endothelial cells (HUVEC) and fibroblasts modeled by human mesenchymal stem cells (MSCs). The concentration ranges selected for each drug and investigational agent were based upon clinically achievable concentrations if the clinical Cmax of the agent was known.
Compounds. The drugs and investigational agents used in this study are listed on Table 1. All of the agents used, including staurosporine (NSC755774) and gemcitabine (NSC613327), were obtained from the Developmental Therapeutics Program, NCI. FDA-approved anticancer drugs are available from the NCI at http://dtp.nci.nih.gov/branches/dscb/oncology_drugset_explanation.html. Drugs and investigational agents were >95% pure by proton nuclear magnetic resonance (NMR) and liquid chromatography/mass spectrometry (LC/MS). Stock solutions were prepared at 400x in DMSO, stored at -70 degrees C, and diluted in fresh medium prior to their use. The final concentration of DMSO in cell culture wells never exceeded 0.25% (v/v). The FDA-approved anticancer drug set is available from the Developmental Therapeutics Program at https://dtp.cancer.gov/organization/dscb/obtaining/available_plates.htm. All drugs and investigational agents were tested over a range starting from a high concentration at or near the clinical Cmax and decreasing in half-log increments. If the clinical Cmax for an agent had not been determined, the highest concentration tested was 10 microM.
Cell Lines. The patient-derived cancer cell (PDC) lines: 292921-168-R-J2-PDC, K24384-001-R-PDC, and 521955-158-R2-J5-PDC pancreatic carcinomas, 556581-035-R-J1 ovarian carcinoma, 324938-238-R-J1-PDC, 855422-203-R-J1-PDC and 883617-216-R-J1-PDC urothelial bladder carcinomas, 743489-274-T-PDC renal cell carcinoma, 138582-R-J1 Merkel cell tumor, K60290-347-R-J1 and K57222-313-R-J1-PDC glioblastomas, 653999-131-R-J2-PDC, LG0703-F948-PDC, and 349418-098-R-PDC non-small cell lung carcinomas, 885512-296-R-J2-PDC, 171881-019-R-J1-PDC breast carcinomas and 186277-243-T-J2-PDC and 233499-124-R-J2-PDC colon carcinomas were obtained from the NCI Patient-Derived Models Repository (PDMR, https://pdmr.cancer.gov). The established cell lines NCI/ADR-RES (RRID:CVCL_14520 and OVCAR-5 (RRID:CVCL_1628) ovarian carcinomas, 786-O (RRID:CVCL_1051) and A498 (RRID:CVCL_A498) renal cell carcinoma, NCI-H211 (ATCC, cat. CRL-5824; RRID:CVCL_1529), NCI-H196 (ATCC, cat. CRL-5823, RRID:CVCL_1509), SW 1271 (ATCC, cat. CRL-2177, RRID:CVCL_1716) and NCI-H1876 (ATCC, cat. CRL-5902, RRID:CVCL_1503) small cell lung carcinomas, MDA-MB-231 (RRID:CVCL_0062) and MDA-MB-468 (RRID:CVCL_0419)breast carcinomas (10-12). Pooled donor human umbilical vein endothelial cells (HUVEC, Lonza, cat. CC-2519) and human mesenchymal stem cells (hMSC, Lonza, cat. PT-2501) were purchased from Lonza (Walkersville, MD).
Cell Culture. All cells were maintained in an incubator at 37 degrees C and 5% CO2 with 95% humidity. The PDC lines were cultured according to standard operating procedures established by the NCI PDMR (https://pdmr.cancer.gov). Briefly all PDCs were thawed and cultured in Matrigel-coated flasks prepared with a working solution of 1X Ham's F-12 nutrient mix, without supplementation (Invitrogen, Waltham, MA, cat. 11765054), 100 U/mL penicillin-streptomycin (Invitrogen, cat. 15140122), and 2.5% Matrigel (Corning Inc., Corning, NY, cat. 354248) for the first three passages. […]

[1] = second compound 0.1 µM, first compound 0.00949 µM
[2] = second compound 0.1 µM, first compound 0.03 µM
[3] = second compound 0.1 µM, first compound 0.0949 µM
[4] = second compound 0.1 µM, first compound 0.3 µM
[5] = second compound 0.316 µM, first compound 0.00949 µM
[6] = second compound 0.316 µM, first compound 0.03 µM
[7] = second compound 0.316 µM, first compound 0.0949 µM
[8] = second compound 0.316 µM, first compound 0.3 µM
[9] = second compound 1 µM, first compound 0.00949 µM
[10] = second compound 1 µM, first compound 0.03 µM
[11] = second compound 1 µM, first compound 0.0949 µM
[12] = second compound 1 µM, first compound 0.3 µM
[13] = second compound 3.16 µM, first compound 0.00949 µM
[14] = second compound 3.16 µM, first compound 0.03 µM
[15] = second compound 3.16 µM, first compound 0.0949 µM
[16] = second compound 3.16 µM, first compound 0.3 µM
[17] = second compound 10 µM, first compound 0.00949 µM
[18] = second compound 10 µM, first compound 0.03 µM
[19] = second compound 10 µM, first compound 0.0949 µM
[20] = second compound 10 µM, first compound 0.3 µM
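Further: spheroids also contain HUVEC and human MSCs and agents combined with iadademstat; spheroids exposed to agents for 7 days before readout.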

CC[C@@]1(O)C(=O)OCc2c1cc1n(c2=O)Cc2cc3c(CN(C)C)c(O)ccc3nc2-1 + NC1CC1c1ccc(-c2cccc(O)c2)cc1
active: viability, T/C (second compound 0.1 µM, first compound 0.0316 µM) 7.47% | viability, T/C (second compound 0.1 µM, first compound 0.1 µM) 8.37% | viability, T/C (second compound 0.316 µM, first compound 0.01 µM) 6.5% | viability, T/C (second compound 0.316 µM, first compound 0.0316 µM) 7.53% | viability, T/C (second compound 0.316 µM, first compound 0.1 µM) 6.02% | viability, T/C (second compound 1 µM, first compound 0.01 µM) 6.31% | viability, T/C (second compound 1 µM, first compound 0.0316 µM) 6.22% | viability, T/C (second compound 1 µM, first compound 0.1 µM) 8.13% | viability, T/C (second compound 3.16 µM, first compound 0.01 µM) 7% | viability, T/C (second compound 3.16 µM, first compound 0.0316 µM) 5.72% | viability, T/C (second compound 3.16 µM, first compound 0.1 µM) 6.54% | viability, T/C (second compound 10 µM, first compound 0.0316 µM) 8.64% | viability, T/C (second compound 10 µM, first compound 0.1 µM) 9.59%
1.38 nM: IC50 (second compound 1 µM)
1.13 nM: IC50 (second compound 0.316 µM)
1.32 nM: IC50 (second compound 0.1 µM)
1.22 nM: IC50 (second compound 3.16 µM)
inactive: viability, T/C (second compound 0.1 µM, first compound 0.000316 µM) 82.5% | viability, T/C (second compound 0.1 µM, first compound 0.001 µM) 57% | viability, T/C (second compound 0.1 µM, first compound 0.00316 µM) 27% | viability, T/C (second compound 0.1 µM, first compound 0.01 µM) 7.09% | viability, T/C (second compound 0.316 µM, first compound 0.000316 µM) 68.2% | viability, T/C (second compound 0.316 µM, first compound 0.001 µM) 52.5% | viability, T/C (second compound 0.316 µM, first compound 0.00316 µM) 25.4% | viability, T/C (second compound 1 µM, first compound 0.000316 µM) 67.8% | viability, T/C (second compound 1 µM, first compound 0.001 µM) 58.2% | viability, T/C (second compound 1 µM, first compound 0.00316 µM) 27.7% | viability, T/C (second compound 3.16 µM, first compound 0.000316 µM) 69.7% | viability, T/C (second compound 3.16 µM, first compound 0.001 µM) 53.6% | viability, T/C (second compound 3.16 µM, first compound 0.00316 µM) 28.6% | viability, T/C (second compound 10 µM, first compound 0.000316 µM) 66.1% | viability, T/C (second compound 10 µM, first compound 0.001 µM) 52.7% | viability, T/C (second compound 10 µM, first compound 0.00316 µM) 28.8% | viability, T/C (second compound 10 µM, first compound 0.01 µM) 10.2%
1.17 nM: IC50 (second compound 10 µM)

COc1cc(C2c3cc4c(cc3C(OC3OC5COC(C)OC5C(O)C3O)C3COC(=O)C23)OCO4)cc(OC)c1O (stereo not given) + NC1CC1c1ccc(-c2cccc(O)c2)cc1
46.5 nM: IC50 (second compound 3.16 µM)
45.8 nM: IC50 (second compound 1 µM)
inactive: viability, T/C [1] 82.3% | viability, T/C [2] 74.6% | viability, T/C [3] 35.1% | viability, T/C [4] 18.9% | viability, T/C (second compound 0.1 µM, first compound 0.949 µM) 20.9% | viability, T/C (second compound 0.1 µM, first compound 3 µM) 10.6% | viability, T/C [5] 69.8% | viability, T/C [6] 67.1% | viability, T/C [7] 38.4% | viability, T/C [8] 22.2% | viability, T/C (second compound 0.316 µM, first compound 0.949 µM) 17.6% | viability, T/C (second compound 0.316 µM, first compound 3 µM) 8.16% | viability, T/C [9] 67.9% | viability, T/C [10] 60% | viability, T/C [11] 34% | viability, T/C [12] 19.6% | viability, T/C (second compound 1 µM, first compound 0.949 µM) 19.2% | viability, T/C (second compound 1 µM, first compound 3 µM) 7.9% | viability, T/C [13] 74% | viability, T/C [14] 59% | viability, T/C [15] 35.6% | viability, T/C [16] 23.3% | viability, T/C (second compound 3.16 µM, first compound 0.949 µM) 17.3% | viability, T/C (second compound 3.16 µM, first compound 3 µM) 11.7% | viability, T/C [17] 73.5% | viability, T/C [18] 54.8% | viability, T/C [19] 34.3% | viability, T/C [20] 27.5% | viability, T/C (second compound 10 µM, first compound 0.949 µM) 16.8% | viability, T/C (second compound 10 µM, first compound 3 µM) 11.7%
61.7 nM: IC50 (second compound 0.1 µM)
38.2 nM: IC50 (second compound 10 µM)
60.3 nM: IC50 (second compound 0.316 µM)

Nc1ccn(C2OC(CO)C(O)C2(F)F)c(=O)n1 (stereo not given) + NC1CC1c1ccc(-c2cccc(O)c2)cc1
< 0.949 nM: IC50 (second compound 0.1 µM) | IC50 (second compound 0.316 µM) | IC50 (second compound 1 µM) | IC50 (second compound 3.16 µM) | IC50 (second compound 10 µM)
inactive: viability, T/C (second compound 0.1 µM, first compound 0.000949 µM) 11.1% | viability, T/C (second compound 0.316 µM, first compound 0.000949 µM) 10.9% | viability, T/C (second compound 1 µM, first compound 0.000949 µM) 11% | viability, T/C (second compound 3.16 µM, first compound 0.000949 µM) 10.4% | viability, T/C (second compound 10 µM, first compound 0.000949 µM) 15.8% | viability, T/C (second compound 10 µM, first compound 0.003 µM) 11.2%
active: viability, T/C (second compound 0.1 µM, first compound 0.003 µM) 8.09% | viability, T/C [1] 6.87% | viability, T/C [2] 6.29% | viability, T/C [3] 6.35% | viability, T/C [4] 5.04% | viability, T/C (second compound 0.316 µM, first compound 0.003 µM) 7.27% | viability, T/C [5] 5.74% | viability, T/C [6] 5.98% | viability, T/C [7] 5.39% | viability, T/C [8] 5.59% | viability, T/C (second compound 1 µM, first compound 0.003 µM) 7.32% | viability, T/C [9] 5.8% | viability, T/C [10] 6.74% | viability, T/C [11] 5.16% | viability, T/C [12] 4.64% | viability, T/C (second compound 3.16 µM, first compound 0.003 µM) 6.79% | viability, T/C [13] 7.61% | viability, T/C [14] 5.95% | viability, T/C [15] 5.45% | viability, T/C [16] 5.23% | viability, T/C [17] 10.4% | viability, T/C [18] 7.49% | viability, T/C [19] 5.31% | viability, T/C [20] 5.65%
